From US20120136033A1, “Small Molecule Antagonists of Phosphatidylinositol-3,4,5-Triphosphate (PIP3) and Uses Thereof” (President and Fellows of Harvard College, priority 2009, published 2012)

Columns and labels:
HUVEC = assay: endothelial tube formation assay on Matrigel; assay type: cell-based, human
Procedure: The tube formation assay was performed in 96-well plates. Wells were pre-coated with 70 μl of the Matrigel basement membrane matrix (BD Biosciences) per well for 1 hr at 37° C. HUVEC were suspended in serum-free M199 medium and plated on Matrigel at a density of 2×10^4 cells per well. PIT-1 was added at indicated concentrations (3.125-100 μM). After an 8 hr incubation at 37° C., phase-contrast images of the endothelial tubes were obtained using a Nikon TE2000 microscope, and tube formation was assessed by counting the number of closed tubes in five random fields from each well.

[1] = system: Bax/Bak double knockout mouse embryonic fibroblasts; assay: cell killing in Bax/Bak double knockout vs wild-type cells; assay type: cell-based
Procedure: Bax/Bak double knockout mouse embryonic fibroblasts (Wei M C et al. (2001) Science 292:727-30) and matched wild-type cells were a generous gift of Dr. Stanley Korsmeyer (Dana-Farber Cancer Center). B16-F10, U87MG, 4T1, A549, MDA-MB-231 and fibroblast cells were cultured in DMEM medium with 10% fetal bovine serum (FBS). SUM159 was maintained in Ham's F-12 medium with 5% FBS, 5 μg/ml insulin, and 1 μg/ml hydrocortisone. HUVEC cells were cultured in M199 medium with 20% FBS, 20 μg/ml ECGS, and 50 μg/ml heparin. All media were supplemented with 100 units/ml penicillin, 100 μg/ml streptomycin, and 2 mM glutamine. All cells were cultured in a humidified atmosphere of 95% air and 5% CO2 at 37° C.

U87MG cells = assay: cell death with pan-caspase inhibitor zVAD.fmk, Sytox assay; assay type: cell-based, human; conditions: 100 μM zVAD.fmk, 24 hr
Procedure: FIG. 11 is a bar graph depicting that cell death triggered by PIT-1 alone or in combination with TRAIL is inhibited by pan-caspase inhibitor zVAD.fmk. U87MG cells were incubated with or without 100 μM zVAD.fmk together with PIT-1 (25, 50, 100 μM) in the presence or absence of 10 ng/ml TRAIL for 24 hr, and analyzed by Sytox cell death assay.
Based on the critical role of PIP3-dependent Akt signaling in the regulation of cell survival, the effect of PIT-1 on the cancer cell viability was tested. […] For the ATP assay, a luminescence-based commercial kit (CellTiter-Glo, Promega, Madison, Wis.) was used. Thirty microliters of cell lysis/ATP detection reagent was added to each well, mixed for 10 min at room temperature, and the luminescence was measured using a Wallac Victor 3 plate reader (Perkin-Elmer, Wellesley, Mass.). […] Twenty microliters of the combined MTS/PMS solution was added into each well, incubated for 4 hr at 37° C., and the absorbance at 490 nm was measured using a Wallac Victor 3 plate reader. For the Sytox cell death assay, measuring loss of plasma membrane integrity, cells were incubated with 1 μM Sytox Green reagent (Molecular Probes, Eugene, Oreg.) for 30 min at 37° C. and the fluorescence intensity was measured using Wallac Victor 3 plate reader with excitation at 485 nm and emission at 545 nm. […]

PI3K-PDK1-Akt pathway = PI3K-PDK1-Akt pathway phosphorylation events in U87MG cells; assay type: cell-based, human
Procedure: The effect of PIT-1 on PIP3-mediated signaling was examined in U87MG glioblastoma cells, which show elevated basal levels of PIP3 due to the loss of PTEN. Pore N et al. (2003) Cancer Res 63:236-41.

PH123 (Akt PH domain) = biological target: T1, PH123 (Akt PH domain) (Homo sapiens, UniProt P31749); assay: lipid overlay assay of PIP3/PH123 binding
T1 construct: recombinant 1-123 amino acid N-terminal fragment of human Akt1; made in house; host or cells: E. coli BL21(DE3)

LC3-II = assay: autophagic marker LC3-II in U87MG cells; assay type: cell-based, human
Source text: Changes in cell metabolism have emerged in recent years as an important component of PI3K/PIP3/Akt signaling, contributing to the regulation of cell viability and transformation by the PI3K/Akt pathway. Datta S R et al. (1999) Genes Dev 13:2905-27; Elstrom R L et al. (2004) Cancer Res 64:3892-9. Therefore, the possibility that PIT-1 may cause dysregulation of energy homeostasis and induction of the metabolic stress in cancer cells, which may contribute to the PIT-induced cell death, was investigated. […] Hardie D G (2007) Nat Rev Mol Cell Biol 8:774-85. […] Mathew R et al. (2007) Nat Rev Cancer 7:961-7. […] Takeuchi H et al. (2005) Cancer Res 65:3336-46.

PLC-δ PH domain = biological target: T2, PLC-δ PH domain (Homo sapiens, UniProt P51178); assay: PH domain translocation assay, GFP-fused PLC-δ PH domain; assay type: cell-based
T2 construct: 100 nM PLC-δ PH domain
T2 sequence (P51178 21-130 limits assumed): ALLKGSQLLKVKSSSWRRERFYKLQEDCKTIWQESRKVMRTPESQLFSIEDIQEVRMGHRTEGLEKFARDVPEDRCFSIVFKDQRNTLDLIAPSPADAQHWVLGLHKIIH
Procedure: Cells were transfected with the corresponding GFP-fusion vectors, serum starved overnight, and incubated with 100 μM PITs or PIT-1is for 2 hr, followed by stimulation with 100 ng/ml PDGF or 250 ng/ml PMA for 5 min. The translocation was analyzed using fluorescent microscope and was quantitated by counting the number of cells with translocated PH domains in five random fields.
In contrast, no inhibitory effect was observed on the cellular localization of PLC-δ PH domain, which is specific for PIP2.

[2] = biological target: T3, PH domain of Akt (His6-Akt123) (Homo sapiens, UniProt P31749); assay: NMR 2D HSQC 1H-15N binding analysis, His6-Akt123
T3 construct: Human Akt PH domain a.a; 1-123; made in house; host or cells: E. coli BL21(DE3)
Procedure: Human Akt PH domain a.a. 1-123 and human PDK1 PH domain a.a. 411-557 were cloned by PCR amplification into Bam HI/Eco RI sites of pGEX-6P-1 vector (GE Healthcare). For NMR experiments, His6-Akt PH123 was prepared by cloning corresponding PCR fragment between Nde I and Eco RI sites of pET-28 vector (Novagen). Recombinant proteins were expressed in BL21(DE3) E. coli. Expression was induced by addition of 100 μM IPTG for 16 hr at 25° C. Proteins were purified using glutathione-sepharose (GE Healthcare) or Ni-NTA beads (Qiagen) according to manufacturer's recommendations and dialyzed overnight against 50 mM Tris-HCl (pH 7.5), 150 mM NaCl, and 5 mM β-mercaptoethanol (b-ME) buffer.
To further characterize the mode of action of PIT-1, NMR-based analyses of PIT-1 binding to the PH domain of Akt were performed. […] PIT-1 was further titrated to identify residues primarily affected by the small molecule binding.

SUM-159 cells = assay: acquisition of the invasive phenotype by SUM-159 cells; assay type: cell-based, human; conditions: reversible

T3 sequence (P31749 1-123): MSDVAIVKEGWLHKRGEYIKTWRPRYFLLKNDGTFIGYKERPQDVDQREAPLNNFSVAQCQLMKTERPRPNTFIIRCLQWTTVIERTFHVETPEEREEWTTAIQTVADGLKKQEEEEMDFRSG
T1 sequence (P31749 1-123): as above

Row | SMILES | inhibition of tube formation (HUVEC) | killing of Bax/Bak double knockout cells compared with wild-type cells [1] | cell death alone or with TRAIL in presence of zVAD.fmk (U87MG cells) | activity of the PI3K-PDK1-Akt pathway in U87MG cells (PI3K-PDK1-Akt pathway) | IC50 (HUVEC; Homo sapiens, HUVEC on Matrigel, 8 hr, 3.125-100 μM, read-out: IC50, inhibition of tube formation) [µM] | effect on PIP3/PH123 binding, lipid overlay (PH123 (Akt PH domain)) | expression of autophagic marker LC3-II (LC3-II) | effect on PLC-δ PH domain localization / PIP2/PH domain binding in cells (PLC-δ PH domain) | changes in 2D HSQC spectrum of His6-Akt123 [2] | acquisition of the invasive phenotype by SUM-159 cells (SUM-159 cells)
1 | O=C1NC(=S)S/C1=C\c1cc(O)c([N+](=O)[O-])cc1Cc1ccccc1 [PIT-2] | also observed | reduced in Bax/Bak double knockout cells | inhibited by a pan-caspase inhibitor zVAD.fmk | suppressed activity |  |  |  |  |  | 
2 | O=C(NC(=S)Nc1cc([N+](=O)[O-])cc(Cl)c1O)c1ccccc1 [PIT-1] |  | reduced in Bax/Bak double knockout cells | inhibited by a pan-caspase inhibitor zVAD.fmk | suppressed activity | 7.75 | concentration-dependent inhibitory effect | prominently increased | does not disrupt | induces significant changes | blocked acquisition of the invasive phenotype
